Source: patent US8765741B2, “5,6-dihydro-1H-pyridin-2-one compounds” (Anadys Pharmaceuticals, Inc., priority 2007, dated 2014)

Tested on: HCV replicon
Assay: HCV replicon assay
Type: cell-based
Details: Hepatitis C virus; Example numbers 64 and 65 in Table 1; HCV replicon cells, 72 hours exposure; read-out: EC50 (HCV replicon inhibition)
Protocol: HCV Replicon Assay (Replicon EC50 (μM))
The cell culture component of the assay is performed essentially as described by Bartenschlager et al., Hepatology 2002, 35, 694-703, wherein exponentially growing HCV Huh-7/C24 replicon cells are seeded at 4.5×10^3 cells/well in 96 well plates and 24 hours later are treated with six point half-log concentration of compound. After 72 hours exposure the media is discarded from the compound assay plate and the cell monolayers are lysed by addition of 150 µL lysis mixture (Genospectra) with incubation at 53° C. for 45 minutes. Following incubation, each lysate is thoroughly mixed and 5 µl (NS3 probe) or 10 µL (GAPDH probe) of each lysate is then transferred to the capture plate and analyzed by bDNA assay.
Branched DNA (bDNA) Assay […]
After subsequent addition of the chemilumigenic substrate (dioxetan), each plate is read by luminometer (Wallac 1420 Multilabel HTS Counter Victor 2). The luminescence signal is proportional to the amount of mRNA present in each lysate. In addition to the samples, cell lysate only (no probe) background controls are also included on each bDNA assay plate and the average signal from these control wells is subtracted from the sample reading prior to analysis. Percent of no drug control is determined for both the NS3 and GAPDH signals for each compound also. […]

| Structure (SMILES) | EC50 [µM] |
| --- | --- |
| O=C1C(C2=NS(=O)(=O)c3cnccc3N2)=C(O)[C@@H]2[C@H]3CC[C@H](C3)[C@@H]2N1Cc1ccc(F)cc1 [Example 64, (1R,2S,7R,8S)-5-(1,1-Dioxo-1,4-dihydro-1λ^6-pyrido[4,3-e][1,2,4]thiadiazin-3-yl)-3-(4-fluoro-benzyl)-6-hydroxy-3-aza-tricyclo[6.2.1.0^2,7]undec-5-en-4-one] | 0.1 to 1 |
| O=C1C(C2=NS(=O)(=O)c3ncccc3N2)=C(O)[C@@H]2[C@H]3CC[C@H](C3)[C@@H]2N1Cc1ccc(F)cc1 [Example 65, (1R,2S,7R,8S)-5-(1,1-Dioxo-1,4-dihydro-1λ^6-pyrido[3,2-e][1,2,4]thiadiazin-3-yl)-3-(4-fluoro-benzyl)-6-hydroxy-3-aza-tricyclo[6.2.1.0^2,7]undec-5-en-4-one] | 0.1 to 1 |
